From article PMC3914206 come the findings set out here.

Assay [1] deals with T1, panel of 442 kinases (Homo sapiens, UniProt Q8TBX8).
T1 construct: purchased KINOMEscan
T1 sequence (Q8TBX8 1-421): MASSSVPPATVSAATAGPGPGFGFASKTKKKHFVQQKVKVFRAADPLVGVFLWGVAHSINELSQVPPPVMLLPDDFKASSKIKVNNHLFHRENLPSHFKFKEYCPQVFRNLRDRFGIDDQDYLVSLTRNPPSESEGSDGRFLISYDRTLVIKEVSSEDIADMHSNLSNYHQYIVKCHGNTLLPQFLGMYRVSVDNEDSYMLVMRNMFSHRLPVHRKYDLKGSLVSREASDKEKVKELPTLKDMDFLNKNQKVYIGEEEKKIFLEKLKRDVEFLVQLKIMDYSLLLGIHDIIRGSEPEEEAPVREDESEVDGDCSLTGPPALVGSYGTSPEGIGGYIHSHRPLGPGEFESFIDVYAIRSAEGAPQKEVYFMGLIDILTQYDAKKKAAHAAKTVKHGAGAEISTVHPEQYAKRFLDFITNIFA
The assay is classed as binding. Conditions: Compound Concentration 10 µM. The text has this: (§1) We assessed the selectivity of members of this scaffold using the KINOMEscan methodology across a near comprehensive panel of 442 kinases [[18,27]].

Assay [2] deals with T2, panel of 442 kinases (Homo sapiens, UniProt P43403).
T2 construct: purchased KINOMEscan
T2 sequence (P43403 1-619): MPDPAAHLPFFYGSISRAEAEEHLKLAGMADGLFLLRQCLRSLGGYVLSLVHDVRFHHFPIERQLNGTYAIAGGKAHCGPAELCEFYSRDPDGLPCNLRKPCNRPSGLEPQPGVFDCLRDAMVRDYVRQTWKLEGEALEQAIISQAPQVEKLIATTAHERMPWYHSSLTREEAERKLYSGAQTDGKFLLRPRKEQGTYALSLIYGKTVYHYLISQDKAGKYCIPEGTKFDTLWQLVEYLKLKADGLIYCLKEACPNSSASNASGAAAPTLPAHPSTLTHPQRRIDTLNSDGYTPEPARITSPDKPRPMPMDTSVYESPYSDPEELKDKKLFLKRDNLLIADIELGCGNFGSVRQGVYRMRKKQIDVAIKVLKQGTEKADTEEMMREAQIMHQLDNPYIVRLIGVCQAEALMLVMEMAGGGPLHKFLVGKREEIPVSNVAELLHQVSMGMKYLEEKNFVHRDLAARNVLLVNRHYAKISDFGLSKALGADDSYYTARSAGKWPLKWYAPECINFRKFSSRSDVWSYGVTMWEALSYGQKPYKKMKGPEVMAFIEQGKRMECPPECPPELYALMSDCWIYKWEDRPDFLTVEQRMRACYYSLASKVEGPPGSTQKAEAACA
The format is binding. The note with it: kinase ZAP70; compound concentration 10 µM.
From the text: as §1

The structures appear in SMILES notation.

Regarding `CCOc1cc(C(=O)N2CCC(N3CCN(C)CC3)CC2)ccc1Nc1ncc2c(n1)N(C1CCCC1)c1ccccc1C(=O)N2C` [Compound 26], the “KINOMEscan: PIP5K2C” value in assay [1] amounted to 93. The “% Ctrl, ZAP70” value in assay [2] turned out to be 90 % Ctrl.
`COc1cc(C(=O)N2CCC(N3CCN(C)CC3)CC2)ccc1Nc1ncc2c(n1)N1CCc3cccc(c31)C(=O)N2C` [Compound 24]: the “% Ctrl, ZAP70” value in assay [2] was determined as 100 % Ctrl.
For the molecule `COc1cc(C(=O)N2CCC(N3CCN(C)CC3)CC2)ccc1Nc1ncc2c(n1)N(C)c1ccccc1C(=O)N2C` [15 (LRRK2-IN-1)], the “KINOMEscan: PIP5K2C” value in assay [1] came to 40. For the same molecule, the “% Ctrl, ZAP70” value in assay [2] is given as 79 % Ctrl.
The corresponding values for `COc1cc(C(=O)N2CCC(N3CCN(C)CC3)CC2)ccc1Nc1ncc2c(n1)N(C1CCCC1)c1ccccc1C(=O)N2C` [Compound 25, 11-cyclopentyl-2-((2-methoxy-4-(4-(4-methylpiperazin-1-yl)piperidine-1-carbonyl)phenyl)amino)-5-methyl-5H-benzo[e]pyrimido[5,4-b][1,4]diazepin-6(11H)-one] are 96 and 79 % Ctrl.
